Test results from patent publication US20250147039A1, “Compounds for complexation of rare earth elements and/or s-, p-, d- block metals, their coordination compounds, peptide conjugates, method of their preparation and use thereof” (USTAV ORGANICKE CHEMIE A BIOCHEMIE AV CR V.V.I., priority 2021, published 2025).

How the values were obtained:
[1] = Formation of 1,5-cz-[M(Lig)] from Lig and M^II ions (metal dependent click-zip) (Charts 6, 7); type: physicochemical; details: MOPS/NaOH buffer pH 7.0, TD728 in 50% i-PrOH
[2] = Formation of 1,5-cz-[M(Lig)] from Lig and M^III ions (metal dependent click-zip) (Charts 4, 5); type: physicochemical; details: for conversion to 1,5-cz-[M(Lig)], Bi^III: 4% DMSO in MOPS/NaOH buffer pH 7.0, TD728 in 50% i-PrOH; for conversion to 1,5-cz-[M(Lig)], Sc^III / conversion to 1,5-cz-[M(Lig)], Y^III: MOPS/NaOH buffer pH 7.0, TD728, TD827 in 50% i-PrOH; for conversion to 1,5-cz-[M(Lig)], Y^III: TD714 sum of two diastereoisomers
[3] = Formation of 1,5-cz-[Ln(Lig)] from Lig and Ln^III ions (metal dependent click-zip), MOPS/NaOH buffer pH 7.0, analytical HPLC (Charts 1, 2); details: MOPS/NaOH buffer pH 7.0
[4] = 1 hour at 80° C., TD714 sum of two diastereoisomers

Row | Structure (SMILES) | conversion to 1,5-cz-[M(Lig)], Ca^II ([1]; 1 week at 80° C.) | conversion to 1,5-cz-[M(Lig)], Cd^II ([1]; 1 week at 80° C.) | conversion to 1,5-cz-[M(Lig)], Ca^II ([1]; 1 hour at 80° C.) | conversion to 1,5-cz-[M(Lig)], Cd^II [1, 4] | conversion to 1,5-cz-[M(Lig)], Sc^III ([2]; 1 week at 80° C.) | conversion to 1,5-cz-[M(Lig)], Y^III ([2]; 1 week at 80° C.) | conversion to 1,5-cz-[Ln(Lig)], Ce^III ([3]; after 1 week at 80° C.) | conversion to 1,5-cz-[Ln(Lig)], Dy^III ([3]; after 1 week at 80° C.) | conversion to 1,5-cz-[Ln(Lig)], Er^III ([3]; after 1 week at 80° C.) | conversion to 1,5-cz-[Ln(Lig)], Eu^III ([3]; after 1 week at 80° C.) | conversion to 1,5-cz-[Ln(Lig)], Gd^III ([3]; after 1 week at 80° C.) | conversion to 1,5-cz-[Ln(Lig)], Ho^III ([3]; after 1 week at 80° C.) | conversion to 1,5-cz-[Ln(Lig)], La^III ([3]; after 1 week at 80° C.) | conversion to 1,5-cz-[Ln(Lig)], Lu^III ([3]; after 1 week at 80° C.) | conversion to 1,5-cz-[Ln(Lig)], Nd^III ([3]; after 1 week at 80° C.) | conversion to 1,5-cz-[Ln(Lig)], Pr^III ([3]; after 1 week at 80° C.) | conversion to 1,5-cz-[Ln(Lig)], Sm^III ([3]; after 1 week at 80° C.) | conversion to 1,5-cz-[Ln(Lig)], Tb^III ([3]; after 1 week at 80° C.) | conversion to 1,5-cz-[Ln(Lig)], Tm^III ([3]; after 1 week at 80° C.) | conversion to 1,5-cz-[Ln(Lig)], Yb^III ([3]; after 1 week at 80° C.) | further results
1 | C#Cc1cccc(CN2CCN(CC(=O)O)CCN(Cc3cc(Cl)cc(CN=[N+]=[N-])n3)CCN(CC(=O)O)CC2)n1 [TD764] | 95% | 96% | 16% | 53% | 5% | 95% | 20% | 93% | 95% | 79% | 86% | 94% | 25% | 96% | 50% | 35% | 73% | 91% | 96% | 96% | conversion to 1,5-cz-[M(Lig)], Mn^II ([1]; 1 week at 80° C.): 35%; conversion to 1,5-cz-[M(Lig)], Pb^II ([1]; 1 week at 80° C.): 37%; conversion to 1,5-cz-[M(Lig)], Pd^II ([1]; 1 week at 80° C.): 9%; conversion to 1,5-cz-[M(Lig)], Mn^II ([1]; 1 hour at 80° C.): 1%; conversion to 1,5-cz-[M(Lig)], Pb^II ([1]; 1 hour at 80° C.): 1%; conversion to 1,5-cz-[M(Lig)], Pd^II ([1]; 1 hour at 80° C.): 10%; conversion to 1,5-cz-[M(Lig)], Bi^III ([2]; 1 week at 80° C.): 85%; conversion to 1,5-cz-[M(Lig)], Bi^III ([2]; 1 hour at 80° C.): 31%
2 | CC(C)(C)C#Cc1cccc(CN2CCN(CC(=O)O)CCN(Cc3cccc(CN=[N+]=[N-])n3)CCN(CC(=O)O)CC2)n1 [TD959] | 83% | 96% | 1% | 2% | 1% | 82% | 11% | 76% | 93% | 51% | 54% | 84% | 18% | 99% | 34% | 27% | 48% | 68% | 97% | 98% | conversion to 1,5-cz-[M(Lig)], Sc^III ([2]; 1 hour at 80° C.): 0%; conversion to 1,5-cz-[M(Lig)], Y^III ([2]; 1 hour at 80° C.): 1%; conversion to 1,5-cz-[Ln(Lig)], Ce^III ([3]; after 1 hour at 80° C.): 0%; conversion to 1,5-cz-[Ln(Lig)], Dy^III ([3]; after 1 hour at 80° C.): 1%; conversion to 1,5-cz-[Ln(Lig)], Er^III ([3]; after 1 hour at 80° C.): 3%; conversion to 1,5-cz-[Ln(Lig)], Eu^III ([3]; after 1 hour at 80° C.): 1%; conversion to 1,5-cz-[Ln(Lig)], Gd^III ([3]; after 1 hour at 80° C.): 1%; conversion to 1,5-cz-[Ln(Lig)], Ho^III ([3]; after 1 hour at 80° C.): 2%; conversion to 1,5-cz-[Ln(Lig)], La^III ([3]; after 1 hour at 80° C.): 0%; conversion to 1,5-cz-[Ln(Lig)], Lu^III ([3]; after 1 hour at 80° C.): 6%; conversion to 1,5-cz-[Ln(Lig)], Nd^III ([3]; after 1 hour at 80° C.): 0%; conversion to 1,5-cz-[Ln(Lig)], Pr^III ([3]; after 1 hour at 80° C.): 0%; conversion to 1,5-cz-[Ln(Lig)], Sm^III ([3]; after 1 hour at 80° C.): 1%; conversion to 1,5-cz-[Ln(Lig)], Tb^III ([3]; after 1 hour at 80° C.): 1%; conversion to 1,5-cz-[Ln(Lig)], Tm^III ([3]; after 1 hour at 80° C.): 4%; conversion to 1,5-cz-[Ln(Lig)], Yb^III ([3]; after 1 hour at 80° C.): 5%
